22 compounds from ChEMBL document CHEMBL1201862, “PubChem BioAssay data set” (2004) can be followed below.

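Each compound was tested at five concentrations against cells in 96-well plates for 48 hours. GI50 = concentration required for 50% inhibition of growth.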 Active and inactive are the calls of the source. Rule as the data show it: active = GI50 up to about 1.1 µM and inactive = higher.

Holding throughout (test): NCI-60 cell line screen, 48 h
Assay [1] relates to DMS-114.
Assay [2] deals with HOP-18.
Assay [3] has as its system KM-20L2.
The subject of assay [4] is LXFL 529.
Assay [5] relates to M19-MEL.
For assay [6], the system named is RXF 631.
The subject of assay [7] is SNB-78.
Assay [8] concerns DLD-1.
Assay [9] concerns DMS-273.

For the compound `CCCCN(CCCC)CCCCNc1c(C)cnc2cc(Cl)ccc12`, the GI50 in [1] was 15.9 µM (inactive); in [2], 23 µM (inactive); in assay [3], 11.3 µM (inactive); in assay [4], 31 µM (inactive); in assay [5], 32.5 µM (inactive); in [6] it was 13.7 µM (inactive). Also, the GI50 in assay [7] is 55.3 µM (inactive).

In the case of `COc1ccc(/C=C/c2onc3c(=O)n(C)nc(-c4ccccc4)c23)cc1`, the GI50 in assay [8], in assay [1], in [9], in [2], in [3] and in assay [4] was > 100 µM (inactive) in each case. For the same compound, the GI50 in [5] was > 100 µM (inactive).

Regarding `COC(=O)c1cc(O)ccc1O` [METHYL 2,5-DIHYDROXYBENZOATE], the GI50 in assay [1], in [9], in assay [4], in [5], in assay [6] and in assay [7] was > 100 µM (inactive) each time.

Turning to `CN(C)CCNC(=O)c1ccc(C(=O)NCCN(C)C)c2nc3ccccc3cc12`, the GI50 in [8] was 0.516 µM (active); in assay [1] it was 0.553 µM (active); in assay [9], 0.538 µM (active); in assay [2], 1.95 µM (inactive); in assay [3], 0.568 µM (active); in assay [4] it was 0.729 µM (active). The GI50 is 0.8 µM (active) in [5], 1 µM (active) in [6] and 1.05 µM (active) in assay [7].

For the compound `N#CCCN(CCC#N)c1ccc(/C=C2\N=C(CN3C(=O)c4ccccc4C3=O)OC2=O)cc1`, the GI50 in [1], in assay [9], in [3], in [4], in assay [5] and in assay [6] was > 100 µM (inactive) throughout.

Regarding `O=C1/C(=C/c2ccc(C(=O)O)cc2)CNC/C1=C\c1ccc(C(=O)O)cc1`, the GI50 in assay [8], in assay [1], in assay [9], in assay [2], in assay [3] and in assay [4] was > 100 µM (inactive) throughout. In addition, the GI50 in assay [5], in [6] and in assay [7] was > 100 µM (inactive) in each case.

`O=C(OCCCl)C1OC(n2cc(F)c(=O)[nH]c2=O)CC1O` (configuration not stated): the GI50 in assay [8], in [1], in assay [2], in assay [3], in assay [4] and in assay [5] was > 100 µM (inactive) throughout. The GI50 in assay [7] was > 100 µM (inactive).

`O=C1c2ccccc2C(=O)c2c1ccc1conc21`: the GI50 was 2.55 µM (inactive) in assay [8]; 1.83 µM (inactive) in assay [1]; 3.44 µM (inactive) in assay [9]; 13.4 µM (inactive) in [2]; 15.4 µM (inactive) in [3]; 1.8 µM (inactive) in [4]. In addition, the GI50 was 1.32 µM (inactive) in [5], 2.85 µM (inactive) in assay [6] and 2.84 µM (inactive) in assay [7].

For `O=C1c2ccccc2C2(O)Nc3cc(O)ccc3C12O` (configuration not stated), the GI50 in [8], in assay [1], in assay [9], in assay [2], in [3] and in [4] was > 100 µM (inactive) throughout. Besides, the GI50 in assay [6] and in assay [7] was > 100 µM (inactive) each time.

For `CN1CCC(c2c(O)cc(O)c3c(=O)cc(-c4ccccc4Cl)oc23)C(O)C1` (configuration not stated), the GI50 in assay [8] is 0.0368 µM (active); in assay [9], 0.0335 µM (active); in [2], 0.102 µM (active); in assay [3], 0.217 µM (active); in assay [4] it was 0.0769 µM (active); in assay [7], 0.118 µM (active).

On to `O=C1C2c3[nH]c4ccccc4c3C3CCCCCC3C2C(=O)N1c1ccccc1` (configuration not stated), for which the GI50 in [8] was 58.2 µM (inactive); in [1] it was > 49.9 µM (inactive); in [9] it was 37.8 µM (inactive); in assay [2] it was 19.5 µM (inactive); in assay [3] it was > 100 µM (inactive); in assay [4] it was > 86.9 µM (inactive). The values for the GI50 in assay [5] and in assay [7] were > 58.1 µM (inactive) and 11.7 µM (inactive), respectively.

Regarding `CC(=O)OCc1cc(OC(C)=O)cnc1COC(C)=O`, the GI50 in assay [8], in assay [1], in assay [9], in assay [2], in [3] and in [4] was > 100 µM (inactive) in each case. The GI50 in assay [5] and in assay [6] was > 100 µM (inactive) throughout.

With `CCCNCC(=O)O[C@]1(CC)C(=O)OCc2c1cc1n(c2=O)Cc2cc3ccccc3nc2-1`, the GI50 is 2.07 µM (inactive) in assay [8]; 0.0187 µM (active) in [1]; < 0.01 µM (active) in assay [9]; 0.123 µM (active) in assay [2]; 0.416 µM (active) in assay [3]; 1.42 µM (inactive) in [4]. Besides, the GI50 in [5] is 0.194 µM (active).

Take `CCCCCCCCCCCC[N+]12CC[N+](CCN)(CC1)CC2`: the GI50 was 82.8 µM (inactive) in assay [8]; 34.1 µM (inactive) in [1]; 14.8 µM (inactive) in [9]; 75.3 µM (inactive) in assay [2]; 62.4 µM (inactive) in assay [3]; 81.7 µM (inactive) in assay [4]. The results for the GI50 in assay [5], in [6] and in assay [7] were > 100 µM (inactive), > 100 µM (inactive) and 77.8 µM (inactive), respectively.

With `COC(=O)C1CC(c2ccc(Cl)cc2)=NO1` (configuration not stated), the GI50 in [8], in [1], in assay [9], in assay [2], in assay [3] and in [4] was > 100 µM (inactive) in each case. Moreover, the GI50 in assay [5] and in [7] was > 100 µM (inactive) in each case.

As for `Cc1ccc(C2CC(c3ccco3)=NN2c2ccccc2)o1` (configuration not stated), the GI50 in [1], in [9], in [3], in [4], in assay [5] and in assay [7] was > 100 µM (inactive) each time.

Turning to `Cc1cc(C)nc(NS(=O)(=O)c2ccc(Nc3c4ccc(Cl)cc4nc4c(C(=O)NCCN(C)C)cccc34)cc2)n1`, the GI50 in assay [8], in assay [1], in assay [9], in assay [3], in assay [4] and in [5] was > 100 µM (inactive) in each case. The GI50 in assay [6] and in [7] was > 100 µM (inactive) in each case.

Take `COC1=CC(=O)C2C(C1=O)C(c1ccc(OC)c(OC)c1)[C@H]2C` (some centres not stated): the GI50 in assay [8] is 17.1 µM (inactive); in assay [1], 19.5 µM (inactive); in assay [9], 23.7 µM (inactive); in [2] it was 20.7 µM (inactive); in assay [3], 68.9 µM (inactive); in assay [4] it was 17.3 µM (inactive). In addition, the values for the GI50 in assay [5], in assay [6] and in assay [7] were 20.8 µM (inactive), 16.4 µM (inactive) and > 100 µM (inactive), respectively.

Regarding `CC1(C)C(=O)/C=C\C(=O)C(C)(C)C2=CC=C(O2)C(C)(C)C(=O)/C=C\C(=O)C(C)(C)C2=CC=C1O2`, the GI50 in [9], in [2], in assay [3], in [4], in assay [5] and in assay [7] was > 100 µM (inactive) in each case.

Regarding `C/N=C(\NC(=S)N(C)C)N(C)C`, the GI50 in [8], in assay [1], in assay [9], in assay [2], in assay [3] and in assay [4] was > 100 µM (inactive) in each case. Also, the GI50 in [5], in assay [6] and in assay [7] was > 100 µM (inactive) in each case.

Consider `CC(C)[C@](O)(C(=O)OCC1=CC[N+]2([O-])CC[C@@H](O)[C@@H]12)[C@H](C)O` (some centres not stated) [INDICINE N-OXIDE], for which the GI50 in assay [8] was > 10000 µM (inactive); in assay [9], 6080 µM (inactive); in [2], > 10000 µM (inactive); in assay [3] it was > 10000 µM (inactive); in assay [5] it was > 10000 µM (inactive); in assay [7], > 10000 µM (inactive).

Take `CCOc1ccc(/C=C/c2cc(OC)c(OC)c(OC)c2)cc1`: the GI50 in [8] is 1.9 µM (inactive); in assay [1], 1.36 µM (inactive); in [9] it was 0.548 µM (active); in assay [2] it was > 75.2 µM (inactive); in assay [3], 0.82 µM (active); in assay [4], 0.809 µM (active). Moreover, the GI50 in [5] was 3.03 µM (inactive); in assay [6] it was 0.879 µM (active); in [7], 0.341 µM (active).
